Source: US12503475B2 (Centessa Pharmaceuticals (UK) Limited, priority 2020, dated 2025)
“And” between values parts separate entries of the source, which are not always exact repeats. Equal values may be shown once. Read-outs that look alike come from different tables or passages of the source.

Biological target: T1, human orexin type 2 receptor (hOX2R) (Homo sapiens, UniProt O43614)
T1 construct: expressed in transfected cells
T1 sequence (O43614 1-444): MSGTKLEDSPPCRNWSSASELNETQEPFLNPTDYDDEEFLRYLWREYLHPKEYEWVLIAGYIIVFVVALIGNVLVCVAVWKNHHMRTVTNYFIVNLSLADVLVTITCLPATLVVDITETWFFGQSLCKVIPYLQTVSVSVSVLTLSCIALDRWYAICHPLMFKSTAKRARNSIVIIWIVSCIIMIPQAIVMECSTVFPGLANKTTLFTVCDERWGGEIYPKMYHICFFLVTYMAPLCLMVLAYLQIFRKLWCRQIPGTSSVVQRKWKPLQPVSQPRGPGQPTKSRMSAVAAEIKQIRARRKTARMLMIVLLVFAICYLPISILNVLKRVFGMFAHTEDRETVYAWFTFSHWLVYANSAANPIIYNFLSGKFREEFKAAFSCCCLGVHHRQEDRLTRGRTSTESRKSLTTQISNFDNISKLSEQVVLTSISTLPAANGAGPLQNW
Assay: Measurement of orexin type 2 receptor agonist activity (FLIPR calcium fluorescence)
Format: cell-based
Details: for Emax: CHO, read-out: hOx2 Emax (%)
Summary of the method: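 Agonism was read as fluorescence in cells stably expressing human OX2R. E. is the response at 10 μM relative to orexin A as full agonist (100%).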

[1] = CHO cells expressing hOX2R, FLIPR calcium fluorescence, read-out: hOx2 pEC50 (converted)
[2] = CHO cells expressing hOX2R, FLIPR calcium fluorescence

| EC50 [1] | Emax [2] [%] | Compound | Emax [%] | EC50 (hOx2 pEC50, CHO cells expressing hOX2R, FLIPR calcium fluorescence) [nM] |
| --- | --- | --- | --- | --- |
| 0.0794 to 1 nM | 90 to 100 | CS(=O)(=O)N[C@@H]1[C@H](Cc2cccc(-c3ccccc3)c2F)N(C(=O)C2(O)CCC2)CC12CC2 [Compound 68, N-((6S,7S)-6-((2-fluoro-[1,1′-biphenyl]-3-yl)methyl)-5-(1-hydroxycyclobutane-1-carbonyl)-5-azaspiro[2.4]heptan-7-yl)methanesulfonamide] |  |  |
| 1 to 10 nM | 90 to 100 | CC(C)C(=O)N1CC2(CC2)C(NS(C)(=O)=O)C1Cc1cccc(-c2cccc(F)c2)c1 (racemic) [Compound 8, N-(6-((3′-fluoro-[1,1′-biphenyl]-3-yl)methyl)-5-isobutyryl-5-azaspiro[2.4]heptan-7-yl)methanesulfonamide] |  |  |
| 1 to 10 nM | 90 to 100 | CC(C)(O)C(=O)N1CC2(CC2)[C@H](NS(=O)(=O)CF)[C@@H]1Cc1cccc(-c2cccc(F)c2)c1F [Compound 177, N-((6S,7S)-6-((2,3′-difluoro-[1,1′-biphenyl]-3-yl)methyl)-5-(2-hydroxy-2-methylpropanoyl)-5-azaspiro[2.4]heptan-7-yl)-1-fluoromethanesulfonamide] |  |  |
| 1 to 10 nM | 90 to 100 | N#C[C@@]1(C(=O)N2CC3(CC3)[C@H](NS(=O)(=O)CF)[C@@H]2Cc2cccc(-c3ccccc3)c2F)CCO1 (single isomer, unassigned) [Compound 225] |  |  |
| 1 to 10 nM | 90 to 100 | CS(=O)(=O)N[C@@H]1[C@H](Cc2cccc(-c3ccccc3)c2F)N(C(=O)NCCO)CC12CC2 (racemic) [Compound 307, 6-((2-fluoro-[1,1′-biphenyl]-3-yl)methyl)-N-(2-hydroxyethyl)-7-(methylsulfonamido)-5-azaspiro[2.4]heptane-5-carboxamide] |  |  |
| 10 to 100 nM | 90 to 100 | CC(C)(C)C(=O)N1CC2(CC2)C(NS(C)(=O)=O)C1Cc1cccc(-c2cccc(F)c2)c1F (racemic) [Compound 23] |  |  |
| 0.0794 to 1 nM | 90 to 100 | CN(CC(F)F)C(=O)N1CC2(CC2)[C@H](NS(C)(=O)=O)[C@@H]1Cc1cccc(-c2ccccc2)c1F [Compound 81, (6S,7S)-N-(2,2-difluoroethyl)-6-((2-fluoro-[1,1′-biphenyl]-3-yl)methyl)-N-methyl-7-(methylsulfonamido)-5-azaspiro[2.4]heptane-5-carboxamide] |  |  |
| 10 to 100 nM | 70 to 80 | CCCNC(=O)N1CC2(CC2)[C@H](NS(C)(=O)=O)[C@@H]1Cc1cccc(-c2ccccc2)c1OC [Compound 342, (6S,7S)-6-((2-methoxy-[1,1′-biphenyl]-3-yl)methyl)-7-(methylsulfonamido)-N-propyl-5-azaspiro[2.4]heptane-5-carboxamide] |  |  |
| 1 to 10 nM and 0.0794 to 1 nM | 90 to 100 | CS(=O)(=O)N[C@@H]1[C@H](Cc2cccc(-c3cccc(F)c3)c2F)N(C(=O)N2CCC2)CC12CC2 [Compound 27, N-((6S,7S)-5-(azetidine-1-carbonyl)-6-((2,3′-difluoro-[1,1′-biphenyl]-3-yl)methyl)-5-azaspiro[2.4]heptan-7-yl)methanesulfonamide] |  |  |
| 1 to 10 nM | 90 to 100 | CC(C)(F)CNC(=O)N1CC2(CC2)[C@H](NS(=O)(=O)CF)[C@@H]1Cc1cccc(-c2ccccc2)c1F [Compound 410, (6S,7S)-N-(2-fluoro-2-methylpropyl)-6-((2-fluoro-[1,1′-biphenyl]-3-yl)methyl)-7-((fluoromethyl)sulfonamido)-5-azaspiro[2.4]heptane-5-carboxamide] |  |  |
| 10 to 100 nM | 90 to 100 | O=C([C@H]1CCO1)N1CC2(CC2)[C@H](NS(=O)(=O)N2CCC2)[C@@H]1Cc1cccc(-c2ccccc2)c1 [Compound 76, N-((6S,7S)-6-([1,1′-biphenyl]-3-ylmethyl)-5-((R)-oxetane-2-carbonyl)-5-azaspiro[2.4]heptan-7-yl)azetidine-1-sulfonamide] |  |  |
| 1 to 10 nM | 90 to 100 | O=C(NCC1(F)CC1)N1CC2(CC2)[C@H](NS(=O)(=O)CF)[C@@H]1Cc1cc(F)cc(-c2cc(F)cc(F)c2)c1F [Compound 415, (6S,7S)-N-((1-fluorocyclopropyl)methyl)-7-((fluoromethyl)sulfonamido)-6-((2,3′,5,5′-tetrafluoro-[1,1′-biphenyl]-3-yl)methyl)-5-azaspiro[2.4]heptane-5-carboxamide] |  |  |
| 1 to 10 nM | 90 to 100 | O=C(NCC(F)F)N1CC2(CC2)[C@H](NS(=O)(=O)C(F)F)[C@@H]1Cc1cc(F)cc(-c2cc(F)cc(F)c2)c1F [Compound 387] |  |  |
| 0.0794 to 1 nM | 90 to 100 | C[C@H](F)CNC(=O)N1CC2(CC2)[C@H](NS(C)(=O)=O)[C@@H]1Cc1cccc(-c2ccccc2)c1F [Compound 84, (6S,7S)-6-((2-fluoro-[1,1′-biphenyl]-3-yl)methyl)-N-((S)-2-fluoropropyl)-7-(methylsulfonamido)-5-azaspiro[2.4]heptane-5-carboxamide] |  |  |
| 10 to 100 nM | 80 to 90 | COC[C@@H](O)C(=O)N1CC2(CC2)[C@H](NS(C)(=O)=O)[C@@H]1Cc1cccc(-c2ccccc2)c1 [Compound 63, N-((6S,7S)-6-([1,1′-biphenyl]-3-ylmethyl)-5-((R)-2-hydroxy-3-methoxypropanoyl)-5-azaspiro[2.4]heptan-7-yl)methanesulfonamide] |  |  |
|  |  | CCNC(=O)N1CC2(CC2)[C@H](NS(C)(=O)=O)[C@@H]1Cc1cccc(-c2ccccc2)c1OC [Compound 54, (6S,7S)—N-ethyl-6-((2-methoxy-[1,1′-biphenyl]-3-yl)methyl)-7-(methylsulfonamido)-5-azaspiro[2.4]heptane-5-carboxamide] | 80 to 90 | 1 to 10 |
| 1 to 10 nM | 90 to 100 | O=C(NC(CF)CF)N1CC2(CC2)[C@H](NS(=O)(=O)CF)[C@@H]1Cc1cccc(-c2ccccc2)c1F [Compound 369, (6S,7S)-N-(1,3-difluoropropan-2-yl)-6-((2-fluoro-[1,1′-biphenyl]-3-yl)methyl)-7-((fluoromethyl)sulfonamido)-5-azaspiro[2.4]heptane-5-carboxamide] |  |  |
| 0.0794 to 1 nM | 90 to 100 | CS(=O)(=O)N[C@@H]1[C@H](Cc2cccc(-c3cc(F)cc(F)c3)c2F)N(C(=O)C2CCC2)CC12CC2 [Compound 33, N-((6S,7S)-5-(cyclobutanecarbonyl)-6-((2,3′,5′-trifluoro-[1,1′-biphenyl]-3-yl)methyl)-5-azaspiro[2.4]heptan-7-yl)methanesulfonamide] |  |  |
| 1 to 10 nM | 90 to 100 | CC(C)(O)C(=O)N1CC2(CC2)[C@H](NS(=O)(=O)C(F)F)[C@@H]1Cc1cccc(-c2cc(F)cc(F)c2)c1F [Compound 195, 1,1-difluoro-N-((6S,7S)-5-(2-hydroxy-2-methylpropanoyl)-6-((2,3′,5′-trifluoro-[1,1′-biphenyl]-3-yl)methyl)-5-azaspiro[2.4]heptan-7-yl)methanesulfonamide] |  |  |
| 1 to 10 nM | 90 to 100 | CCS(=O)(=O)N[C@@H]1[C@H](Cc2cccc(-c3ccccc3)c2F)N(C(=O)[C@H]2CCO2)CC12CC2 [Compound 53, N-((6S,7S)-6-((2-fluoro-[1,1′-biphenyl]-3-yl)methyl)-5-((R)-oxetane-2-carbonyl)-5-azaspiro[2.4]heptan-7-yl)ethanesulfonamide] |  |  |
| 0.0794 to 1 nM | 90 to 100 | COC1(CNC(=O)N2CC3(CC3)[C@H](NS(=O)(=O)C(F)F)[C@@H]2Cc2cccc(-c3ccccc3)c2F)CC1 [Compound 215, (6S,7S)-7-((difluoromethyl)sulfonamido)-6-((2-fluoro-[1,1′-biphenyl]-3-yl)methyl)-N-((1-methoxycyclopropyl)methyl)-5-azaspiro[2.4]heptane-5-carboxamide] |  |  |
| 1 to 10 nM | 90 to 100 | O=C([C@H]1CCO1)N1CC2(CC2)[C@H](NS(=O)(=O)C(F)F)[C@@H]1Cc1cccc(-c2cccc(F)c2F)c1F [Compound 172] |  |  |

| Compound | EC50 [1] | Emax [2] [%] | Emax [%] | EC50 (hOx2 pEC50, CHO cells expressing hOX2R, FLIPR calcium fluorescence) [nM] |
| --- | --- | --- | --- | --- |
| CN(C)C(=O)N1CC2(CC2)[C@H](NS(C)(=O)=O)[C@@H]1Cc1cccc(-c2ccccc2)c1F [Compound 110, (6S,7S)-6-((2-fluoro-[1,1′-biphenyl]-3-yl)methyl)-N,N-dimethyl-7-(methylsulfonamido)-5-azaspiro[2.4]heptane-5-carboxamide] | 0.0794 to 1 nM |  | 90 to 100 |  |
| CN(C)S(=O)(=O)N[C@@H]1[C@H](Cc2cccc(-c3ccccc3)c2F)N(C(=O)N2CCC2)CC12CC2 [Compound 116, N-((6S,7S)-5-(azetidine-1-carbonyl)-6-((2-fluoro-[1,1′-biphenyl]-3-yl)methyl)-5-azaspiro[2.4]heptan-7-yl)-N,N-dimethylsulfuric diamide] | 0.0794 to 1 nM |  | 90 to 100 |  |
